This is an account of results in the supplement of paper PMC10627819.

Holding throughout (assay): Bliss interaction score (quartile over a dose matrix) (fitness difference); higher = more antagonism (negative = synergy)
Assay [1] deals with S. aureus DSM 20231. In short, it runs like this: (§1)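 Growth was read as OD595 when cultures entered stationary phase, and each value was divided by the plate's robust no-drug mean and capped at 1. This normalised ratio is the fitness value, and fitness for each single drug came from the combination data. The Bliss score subtracts the expected fitness, taken as the product, from the observed fitness and is given as quartiles across technical, biological and donor/recipient replicates.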

The subject of assay [2] is B. subtilis 168. In short, it runs like this:
as §1

Assay [3] deals with S. aureus Newman. In short, it runs like this:
as §1

For assay [4], the system named is S. pneumoniae D39V. An outline of the steps: as §1

SMILES strings stand for the structures.
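Also: first quartile when negative (synergy) and third quartile when positive (antagonism).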

`CC(=O)OC[C@H]1O[C@@H]([S-])[C@H](OC(C)=O)[C@@H](OC(C)=O)[C@@H]1OC(C)=O.CCP(CC)CC.[Au+]` [Auranofin] + C1=CC(=CC(=C1)Cl)NN=C(C#N)C#N [CCCP]: the Bliss interaction score in assay [1] was found to be 0.0194; in assay [2], 0.0372; in assay [3], 0.0798; in assay [4] it was 0.0425.

On to `CC(=O)OC[C@H]1O[C@@H]([S-])[C@H](OC(C)=O)[C@@H](OC(C)=O)[C@@H]1OC(C)=O.CCP(CC)CC.[Au+]` [Auranofin] + C/C(=C\C(=O)OCCCCCCCCC(=O)O)C[C@@H]1OC[C@H](C[C@@H]2O[C@H]2[C@@H](C)[C@H](C)O)[C@@H](O)[C@H]1O [Pseudomonic acid], for which the Bliss interaction score turned out to be 0.0133 in assay [1], 0.0268 in assay [2], 0.0254 in assay [3] and 0.081 in assay [4].

`CC(=O)OC[C@H]1O[C@@H]([S-])[C@H](OC(C)=O)[C@@H](OC(C)=O)[C@@H]1OC(C)=O.CCP(CC)CC.[Au+]` [Auranofin] + CC1(C)S[C@@H]2[C@H](NC(=O)Cc3ccccc3)C(=O)N2[C@H]1C(=O)O [PenicillinG]: the Bliss interaction score is 0.0414 in assay [1], -0.0513 in assay [2], -0.0443 in assay [3] and 0.0454 in assay [4].

As for `CC(=O)OC[C@H]1O[C@@H]([S-])[C@H](OC(C)=O)[C@@H](OC(C)=O)[C@@H]1OC(C)=O.CCP(CC)CC.[Au+]` [Auranofin] + CC1=C(C(=O)O)N2C(=O)[C@@H](NC(=O)[C@H](N)c3ccccc3)[C@H]2SC1 [Cephalexin], the Bliss interaction score in assay [1] was -0.0272; in assay [2], -0.0587; in assay [3], -0.0291; in assay [4], -0.101.

Regarding `CC(=O)OC[C@H]1O[C@@H]([S-])[C@H](OC(C)=O)[C@@H](OC(C)=O)[C@@H]1OC(C)=O.CCP(CC)CC.[Au+]` [Auranofin] + CC1=C\[C@@H](O)CC(=O)Cc2nc(co2)C(=O)N2CCC=C2C(=O)O[C@H](C(C)C)[C@H](C)/C=C/C(=O)NC\C=C\1 [Virginiamycin M1], the Bliss interaction score in assay [1] was -0.0753; in assay [2], -0.0329; in assay [3], -0.0212; in assay [4], 0.0585.

Regarding `CC(=O)OC[C@H]1O[C@@H]([S-])[C@H](OC(C)=O)[C@@H](OC(C)=O)[C@@H]1OC(C)=O.CCP(CC)CC.[Au+]` [Auranofin] + CC(=O)NC[C@H]1CN(c2ccc(N3CCOCC3)c(F)c2)C(=O)O1 [Linezolid], the Bliss interaction score in assay [1] was 0.0191; in assay [2] it was -0.0379; in assay [3], 0.067; in assay [4], -0.104.

Consider `CC(=O)OC[C@H]1O[C@@H]([S-])[C@H](OC(C)=O)[C@@H](OC(C)=O)[C@@H]1OC(C)=O.CCP(CC)CC.[Au+]` [Auranofin] + CC(=O)O[C@H]1C[C@@]2(C)[C@@H](C[C@@H](O)[C@H]3[C@@]4(C)CC[C@@H](O)[C@@H](C)[C@@H]4CC[C@@]32C)/C1=C(\CCC=C(C)C)C(=O)O [Fusidic acid], for which the Bliss interaction score in assay [1] was 0.019; in assay [2], 0.0389; in assay [3] it was 0.0311; in assay [4] it was -0.0761.

As to `CC(=O)OC[C@H]1O[C@@H]([S-])[C@H](OC(C)=O)[C@@H](OC(C)=O)[C@@H]1OC(C)=O.CCP(CC)CC.[Au+]` [Auranofin] + CC(C1CCC(C(O1)OC2C(CC(C(C2O)OC3C(C(C(CO3)(C)O)NC)O)N)N)N)NC [Gentamicin], the Bliss interaction score in assay [1] (main component drawn) was 0.0359; in assay [2] (main component drawn), -0.0544; in assay [3] (main component drawn) it was 0.0898; in assay [4] (main component drawn), -0.0834.

Consider `CC(=O)OC[C@H]1O[C@@H]([S-])[C@H](OC(C)=O)[C@@H](OC(C)=O)[C@@H]1OC(C)=O.CCP(CC)CC.[Au+]` [Auranofin] + CCC(C)C1C(=O)NC(=C)C(=O)NC(C(=O)NC(CSCC(C(=O)N1)NC(=O)/C(=C/C)/NC(=O)C(C(C)CC)N)C(=O)NC2C(SCC(NC(=O)CNC(=O)C3CCCN3C2=O)C(=O)NC(CCCCN)C(=O)NC4C(SCC(NC(=O)CNC(=O)C(NC(=O)C(NC(=O)C(NC(=O)CNC4=O)C)CC(C)C)CCSC)C(=O)NC(CC(=O)N)C(=O)NC(CCSC)C(=O)NC(CCCCN)C(=O)NC5C(SCC6C(=O)NC(C(=O)NC(CSC(C(C(=O)N6)NC(=O)C(NC5=O)C)C)C(=O)NC(CO)C(=O)NC(C(C)CC)C(=O)NC(CC7=CN=CN7)C(=O)NC(C(C)C)C(=O)NC(=C)C(=O)NC(CCCCN)C(=O)O)CC8=CN=CN8)C)C)C)CC(C)C [Nisin], for which the Bliss interaction score in assay [1] (main component drawn) is -0.0361; in assay [2] (main component drawn), -0.0321; in assay [3] (main component drawn), 0.0274; in assay [4] (main component drawn) it was -0.0798.

With `CC(=O)OC[C@H]1O[C@@H]([S-])[C@H](OC(C)=O)[C@@H](OC(C)=O)[C@@H]1OC(C)=O.CCP(CC)CC.[Au+]` [Auranofin] + CCCCCCCCCC(=O)N[C@@H]1[C@H]([C@@H]([C@H](O[C@H]1OC2=C3C=C4C=C2OC5=C(C=C(C=C5)[C@H]([C@H]6C(=O)N[C@@H](C7=C(C(=CC(=C7)O)OC8[C@H]([C@H]([C@@H]([C@H](O8)CO)O)O)O)C9=C(C=CC(=C9)[C@H](C(=O)N6)NC(=O)[C@@H]4NC(=O)[C@@H]1C2=CC(=CC(=C2)OC2=C(C=CC(=C2)[C@H](C(=O)N[C@H](CC2=CC(=C(O3)C=C2)Cl)C(=O)N1)N)O)O)O)C(=O)O)O[C@H]1[C@@H]([C@H]([C@@H]([C@H](O1)CO)O)O)NC(=O)C)Cl)CO)O)O [Teicoplanin], the Bliss interaction score in assay [1] (main component drawn) is 0.0469; in assay [2] (main component drawn), -0.0433; in assay [3] (main component drawn), 0.0303; in assay [4] (main component drawn), 0.0761.

Take `CC(=O)OC[C@H]1O[C@@H]([S-])[C@H](OC(C)=O)[C@@H](OC(C)=O)[C@@H]1OC(C)=O.CCP(CC)CC.[Au+]` [Auranofin] + CCC[C@@H]1C[C@@H](C(=O)N[C@@H]([C@H]2O[C@H](SC)[C@H](O)[C@@H](O)[C@H]2O)[C@@H](C)O)N(C)C1 [Lincomycin]: the Bliss interaction score was 0.0235 in assay [1], 0.066 in assay [2], 0.0853 in assay [3] and -0.0496 in assay [4].

`CC(=O)OC[C@H]1O[C@@H]([S-])[C@H](OC(C)=O)[C@@H](OC(C)=O)[C@@H]1OC(C)=O.CCP(CC)CC.[Au+]` [Auranofin] + CCC[C@@H]1C[C@@H](C(=O)N[C@@H]([C@H]2O[C@H](SC)[C@H](O)[C@@H](O)[C@H]2O)[C@H](C)Cl)N(C)C1 [Clindamycin]: the Bliss interaction score in assay [1] is 0.0307; in assay [2], 0.0424; in assay [3], 0.0741; in assay [4], 0.0341.

`CC(=O)OC[C@H]1O[C@@H]([S-])[C@H](OC(C)=O)[C@@H](OC(C)=O)[C@@H]1OC(C)=O.CCP(CC)CC.[Au+]` [Auranofin] + CCN(CC)CCOC(=O)c1ccc(N)cc1 [Procaine]: the Bliss interaction score in assay [1] is -0.0516; in assay [2] it was -0.0372; in assay [3] it was -0.0631; in assay [4] it was -0.0391.

As to `CC(=O)OC[C@H]1O[C@@H]([S-])[C@H](OC(C)=O)[C@@H](OC(C)=O)[C@@H]1OC(C)=O.CCP(CC)CC.[Au+]` [Auranofin] + CC[C@H]1OC(=O)[C@H](C)C(=O)[C@H](C)[C@@H](O[C@@H]2O[C@H](C)C[C@H](N(C)C)[C@H]2O)[C@](C)(OC)C[C@@H](C)C(=O)[C@H](C)[C@H]2N(CCCCn3cnc(-c4cccnc4)c3)C(=O)O[C@]12C [Telithromycin], the Bliss interaction score in assay [1] was 0.0187; in assay [2] it was -0.0304; in assay [3], 0.0309; in assay [4], 0.0324.

With `CC(=O)OC[C@H]1O[C@@H]([S-])[C@H](OC(C)=O)[C@@H](OC(C)=O)[C@@H]1OC(C)=O.CCP(CC)CC.[Au+]` [Auranofin] + CC[C@H]1OC(=O)[C@H](C)[C@@H](O[C@H]2C[C@@](C)(OC)[C@@H](O)[C@H](C)O2)[C@H](C)[C@@H](O[C@@H]2O[C@H](C)C[C@H](N(C)C)[C@H]2O)[C@](C)(O)C[C@@H](C)C(=O)[C@H](C)[C@@H](O)[C@]1(C)O [Erythromycin], the Bliss interaction score in assay [1] turned out to be 0.0169; in assay [2], 0.0564; in assay [3], 0.0459; in assay [4], 0.0643.

Take `CC(=O)OC[C@H]1O[C@@H]([S-])[C@H](OC(C)=O)[C@@H](OC(C)=O)[C@@H]1OC(C)=O.CCP(CC)CC.[Au+]` [Auranofin] + CC[C@H]1OC(=O)[C@H](C)[C@@H](O[C@H]2C[C@@](C)(OC)[C@@H](O)[C@H](C)O2)[C@H](C)[C@@H](O[C@@H]2O[C@H](C)C[C@H](N(C)C)[C@H]2O)[C@](C)(O)C[C@@H](C)CN(C)[C@H](C)[C@@H](O)[C@]1(C)O [Azithromycin]: the Bliss interaction score is 0.0282 in assay [1], 0.0589 in assay [2], 0.137 in assay [3] and -0.038 in assay [4].
